How the values were obtained:
[1] = molar heat capacity at constant pressure; wn = mass fraction of the nth substance listed; conditions: 101 kPa, Liquid, Small sample (50 mg) DSC, w2 = 0.1478
[2] = wn = mass fraction of the nth substance listed; conditions: 101 kPa, Liquid, w2 = 0.1478; for mass density: Vibrating tube method; for viscosity: Cone and plate viscometry; for electrical conductivity: Direct current cell with electrodes; for thermal conductivity: transient hot wire
[3] = 101.33 kPa, Liquid; for thermal conductivity: transient hot wire; for mass density: Vibrating tube method; for viscosity: Cone and plate viscometry; for electrical conductivity: Direct current cell with electrodes
[4] = molar heat capacity at constant pressure; conditions: 101.33 kPa, Liquid, Small sample (50 mg) DSC

CCCCCCCC(=O)[O-].CCCCCCCCCCCCCC[P+](CCCCCC)(CCCCCC)CCCCCC [trihexyl(tetradecyl)phosphonium octanoate] + O
Conditions | electrical conductivity [S/m] | mass density [kg/m3] | molar heat capacity at constant pressure [J/K/mol] | thermal conductivity [W/m/K] | viscosity [mPa·s]
[1], 298.15 K | – | – | 319.61 | – | –
[1], 303.15 K | – | – | 322.43 | – | –
[1], 308.15 K | – | – | 325.15 | – | –
[1], 313.15 K | – | – | 326.51 | – | –
[1], 318.15 K | – | – | 329.23 | – | –
[1], 323.15 K | – | – | 332.16 | – | –
[1], 328.15 K | – | – | 335.5 | – | –
[1], 333.15 K | – | – | 338.32 | – | –
[1], 338.15 K | – | – | 340.52 | – | –
[1], 343.15 K | – | – | 342.51 | – | –
[1], 348.15 K | – | – | 345.96 | – | –
[1], 353.15 K | – | – | 350.45 | – | –
[1], 358.15 K | – | – | 353.8 | – | –
[1], 363.15 K | – | – | 358.19 | – | –
[2], 298.15 K | – | 901.5 | – | – | –
[2], 298.2 K | – | – | – | – | 82.71
[2], 299 K | 0.0415 | – | – | – | –
[2], 299.13 K | – | – | – | 0.1872 | –
[2], 303.15 K | – | 898.1 | – | – | –
[2], 303.2 K | – | – | – | – | 70.08
[2], 304.4 K | 0.051 | – | – | – | –
[2], 307.9 K | – | – | – | 0.1852 | –
[2], 308.2 K | – | – | – | – | 58.36
[2], 308.8 K | 0.0603 | – | – | – | –
[2], 313.15 K | – | 891.3 | – | – | –
[2], 313.2 K | – | – | – | – | 48.63
[2], 313.6 K | 0.0724 | – | – | – | –
[2], 318.01 K | – | – | – | 0.1831 | –
[2], 318.2 K | 0.0882 | – | – | – | 41.34
[2], 323.15 K | – | 884.7 | – | – | –
[2], 323.2 K | – | – | – | – | 35.7
[2], 323.8 K | 0.101 | – | – | – | –
[2], 327.85 K | – | – | – | 0.1821 | –
[2], 328.2 K | – | – | – | – | 30.82
[2], 328.6 K | 0.119 | – | – | – | –
[2], 333.15 K | – | 877.7 | – | – | –
[2], 333.2 K | – | – | – | – | 26.32
[2], 333.4 K | 0.139 | – | – | – | –
[2], 337.66 K | – | – | – | 0.1801 | –
[2], 338.1 K | 0.164 | – | – | – | –
[2], 338.2 K | – | – | – | – | 22.53
[2], 343.15 K | – | 870.8 | – | – | –
[2], 343.2 K | – | – | – | – | 19.93
[2], 343.5 K | 0.182 | – | – | – | –
[2], 347.48 K | – | – | – | 0.1791 | –
[2], 348.2 K | – | – | – | – | 17.29
[2], 349.7 K | 0.215 | – | – | – | –
[2], 353.15 K | – | 863.8 | – | – | –
[2], 353.2 K | – | – | – | – | 15.03
[2], 358 K | – | – | – | 0.1771 | –
[2], 358.2 K | – | – | – | – | 13.44
[2], 363.15 K | – | 857.1 | – | – | –
[2], 363.2 K | – | – | – | – | 11.86
[2], 368.2 K | – | – | – | – | 10.87

CC(=O)[O-].CCCCCCCCCCCCCC[P+](CCCCCC)(CCCCCC)CCCCCC [trihexyl(tetradecyl)phosphonium acetate]
Conditions | electrical conductivity [S/m] | mass density [kg/m3] | molar heat capacity at constant pressure [J/K/mol] | thermal conductivity [W/m/K] | viscosity [mPa·s]
[3], 278.37 K | – | – | – | 0.1629 | –
[3], 288.1 K | – | – | – | 0.1612 | –
[3], 293.15 K | – | 897.6 | – | – | –
[3], 293.2 K | – | – | – | – | 254
[3], 298.15 K | – | 894.6 | – | – | –
[3], 298.16 K | – | – | – | 0.1602 | –
[3], 298.2 K | – | – | – | – | 196.2
[3], 299.6 K | 0.00554 | – | – | – | –
[3], 303.15 K | – | 891.5 | – | – | –
[3], 303.2 K | – | – | – | – | 151.2
[3], 303.9 K | 0.00767 | – | – | – | –
[3], 307.92 K | – | – | – | 0.1598 | –
[3], 308.2 K | – | – | – | – | 117.4
[3], 308.7 K | 0.0101 | – | – | – | –
[3], 313.15 K | – | 885.2 | – | – | –
[3], 313.2 K | – | – | – | – | 92.23
[3], 313.7 K | 0.0129 | – | – | – | –
[3], 317.98 K | – | – | – | 0.1582 | –
[3], 318.2 K | – | – | – | – | 73.75
[3], 318.8 K | 0.0167 | – | – | – | –
[3], 323.15 K | – | 879 | – | – | –
[3], 323.2 K | – | – | – | – | 59.32
[3], 323.8 K | 0.0209 | – | – | – | –
[3], 328.08 K | – | – | – | 0.1565 | –
[3], 328.2 K | – | – | – | – | 48.52
[3], 328.8 K | 0.026 | – | – | – | –
[3], 333.15 K | – | 872.9 | – | – | –
[3], 333.2 K | – | – | – | – | 40.22
[3], 333.9 K | 0.0317 | – | – | – | –
[3], 338 K | – | – | – | 0.1558 | –
[3], 338.2 K | – | – | – | – | 33.78
[3], 338.9 K | 0.0383 | – | – | – | –
[3], 343.15 K | – | 866.7 | – | – | –
[3], 343.2 K | – | – | – | – | 28.55
[3], 343.9 K | 0.0458 | – | – | – | –
[3], 348.06 K | – | – | – | 0.1551 | –
[3], 348.2 K | – | – | – | – | 24.46
[3], 349 K | 0.0542 | – | – | – | –
[3], 353.15 K | – | 860.7 | – | – | –
[3], 353.2 K | – | – | – | – | 20.95
[3], 357.1 K | – | – | – | 0.1541 | –
[3], 358.2 K | – | – | – | – | 18.13
[3], 363.15 K | – | 854.7 | – | – | –
[3], 363.2 K | – | – | – | – | 15.71
[3], 368.2 K | – | – | – | – | 13.72
[4], 293.15 K | – | – | 1095.6 | – | –
[4], 298.15 K | – | – | 1097.7 | – | –
[4], 303.15 K | – | – | 1101.5 | – | –
[4], 308.15 K | – | – | 1105.9 | – | –
[4], 313.15 K | – | – | 1111.3 | – | –
[4], 318.15 K | – | – | 1116.7 | – | –
[4], 323.15 K | – | – | 1122.7 | – | –
[4], 328.15 K | – | – | 1128.1 | – | –
[4], 333.15 K | – | – | 1134.1 | – | –
[4], 338.15 K | – | – | 1140.6 | – | –
[4], 343.15 K | – | – | 1147.1 | – | –
[4], 348.15 K | – | – | 1154.2 | – | –
[4], 353.15 K | – | – | 1158.5 | – | –
[4], 358.15 K | – | – | 1166.7 | – | –
[4], 363.15 K | – | – | 1173.2 | – | –
